Values of other authors in patent US20230241194A1, “PRE-ERYTHROCYTIC MALARIA VACCINES” (PATH, priority 2020, published 2023).

Target: T1, TLR7 (Homo sapiens, UniProt Q9NYK1)
T1 sequence (Q9NYK1 27-1049): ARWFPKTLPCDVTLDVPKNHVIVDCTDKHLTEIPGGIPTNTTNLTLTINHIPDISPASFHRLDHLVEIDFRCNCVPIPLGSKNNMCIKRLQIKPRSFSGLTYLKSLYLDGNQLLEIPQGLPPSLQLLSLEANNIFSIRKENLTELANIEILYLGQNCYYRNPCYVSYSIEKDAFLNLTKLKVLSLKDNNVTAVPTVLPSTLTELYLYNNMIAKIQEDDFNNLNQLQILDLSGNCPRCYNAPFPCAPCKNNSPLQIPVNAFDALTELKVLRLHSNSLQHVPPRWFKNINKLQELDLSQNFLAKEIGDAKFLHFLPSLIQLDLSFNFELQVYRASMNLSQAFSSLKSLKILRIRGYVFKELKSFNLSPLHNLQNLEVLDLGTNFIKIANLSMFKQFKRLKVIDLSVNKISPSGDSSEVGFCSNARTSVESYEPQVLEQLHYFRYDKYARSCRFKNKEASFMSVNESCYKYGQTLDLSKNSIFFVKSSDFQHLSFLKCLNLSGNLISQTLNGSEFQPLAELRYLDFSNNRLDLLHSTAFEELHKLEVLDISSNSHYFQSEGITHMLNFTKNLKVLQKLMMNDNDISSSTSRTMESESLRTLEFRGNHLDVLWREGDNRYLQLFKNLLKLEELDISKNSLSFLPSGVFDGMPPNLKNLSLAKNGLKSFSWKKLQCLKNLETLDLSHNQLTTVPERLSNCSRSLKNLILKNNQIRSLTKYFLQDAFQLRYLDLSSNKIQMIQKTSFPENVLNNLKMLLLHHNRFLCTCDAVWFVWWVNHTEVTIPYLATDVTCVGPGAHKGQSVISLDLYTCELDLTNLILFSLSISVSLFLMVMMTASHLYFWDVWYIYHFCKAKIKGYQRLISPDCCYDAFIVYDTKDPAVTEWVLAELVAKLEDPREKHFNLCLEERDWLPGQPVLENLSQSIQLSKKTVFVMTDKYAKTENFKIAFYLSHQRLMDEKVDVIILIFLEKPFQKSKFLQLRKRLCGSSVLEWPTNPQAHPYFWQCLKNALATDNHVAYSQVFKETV
Settings: reported in PTL 1

TLR7 agonistic activity: having TLR7 agonistic activity
SMILES: CCC[C@@H](CCO)Nc1nc(N)nc(C)c1Cc1ccc(CN(C)CCNC(=O)CC/C(C)=C/CC/C(C)=C/CC/C(C)=C/CC/C=C(\C)CC/C=C(\C)CCC=C(C)C)cc1 [Compound A, (4E,8E,12E,16E,20E)-N-{2-[{4-[(2-amino-4-{[(3S)-1-hydroxyhexan-3-yl]amino}-6-methylpyrimidin-5-yl)methyl]benzyl}(methyl)amino]ethyl}-4,8,12,17,21,25-hexamethylhexacosa-4,8,12,16,20,24-hexaenamide]
